Assay results published in US9631196B2, “Genetic manipulation and expression systems for Pucciniomycotina and Ustilaginomycotina subphyla” (priority 2011, dated 2017).
Where two headings read alike, the source gives them in different places.

What was measured:
[1] = system: U maydis spheroplasts; type: cell-based, Ustilago maydis
Description: (§1) cyp1 (um11812) and ptf1 (um02713) genes were chosen for the comparison of gene-targeting frequency, which can be monitored by the loss of ustilagic acids (UA) production and the loss of Fuz^+ colonies, respectively. Gene deletion constructs, pKOcyp1 and pKOprf1, were made by one-step ligation of four fragments. pKOcyp1 is composed of the 2.0-kb HindIII-PacI fragment containing the Pgpd::hpt cassette, the 8.7 kb NcoI-KpnI fragment from pEX2tk, the 1405 bp NcoI-HindIII and the 1076 bp PacI-KpnI PCR product derived from the upstream and downstream regions of the cyp1 ORF. The oligo pairs Cyp1L-Nf/Cyp1L-Hr (SEQ ID NO:29/SEQ ID NO:30) and Cyp1R-Pf/Cyp1R-Kr (SEQ ID NO:31/SEQ ID NO:32) were used for the amplification of upstream and downstream region, respectively. pKOprf1 was made similarly except the PCR product of oligo pairs Prf1L-Nf/Prf1L-Hr (SEQ ID NO:33/SEQ ID NO:34) and Prf1R-Pf/Prf1R-Kr (SEQ ID NO:35/SEQ ID NO:36) were used as the upstream and downstream homology region, respectively. Correct strains were identified by colony PCR using Taq DNA polymerase based on the size of the expected constructs using oligos LB/Cyp1L-Nf (SEQ ID NO:37/SEQ ID NO:29) and LB/Prf1L-Nf (SEQ ID NO:37/SEQ ID NO:33) for cyp1Δ and prf1Δ respectively. The same construction and identification techniques were applied to generate other gene deletion mutants in this study.
PEG-mediated transformation of U maydis spheroplasts were done as described previously (Kämper, 2004). Briefly, the 4.5 kb cyp1 and prf1 gene deletion cassettes were amplified from pKOcyp1 and pKOprf1 using the Expand Long System (Roche Diagnosis, USA) and oligos Cyp1L-Nf/Cyp1R-Kr (SEQ ID NO:29/SEQ ID NO:32) and Prf1L-Nf/Prf1R-Kr (SEQ ID NO:33/SEQ ID NO:36), respectively. The PCR products were gel purified (Qiagen, Germany) and used for transformation. […]

[2] = system: U. maydis L8 and SG200; type: cell-based, Ustilago maydis; conditions: for cyp1Δ (%) gene knockout frequency / prf1 Δ (%) gene knockout frequency: co-culture 2 days
Description: as §1
Similar results were obtained when knockout was performed via the ATMT transformation (Table 9).

[3] = NU7026 1 μM in top and bottom regeneration media, 3 days, out of 288 transformants

Which results are given for `O=c1cc(N2CCOCC2)oc2c1ccc1ccccc12` [NU7026, 2-(morpholin-4-yl)-benzo[h]chomen-4-one; 2-(4-morpholinyl)-4H-naphthol[1,2-b]pyran-4-one]?
cyp1Δ gene knockout frequency [1, 3]: 16.67%; prf1Δ gene knockout frequency [1, 3]: 26.39%; increase of gene knockout frequency ([1]; both cyp1 and prf1, NU7026 1 μM vs control): about 3 folds; cyp1Δ (%) gene knockout frequency ([2]; NU7026 0.1 μM): 8.3%; prf1 Δ (%) gene knockout frequency ([2]; NU7026 0.1 μM): 11.4%; cyp1Δ (%) gene knockout frequency ([2]; NU7026 1 μM): 18.8%; prf1 Δ (%) gene knockout frequency ([2]; NU7026 1 μM): 25.1%; cyp1Δ (%) gene knockout frequency ([2]; NU7026 5 μM): 10.4%; prf1 Δ (%) gene knockout frequency ([2]; NU7026 5 μM): 12.7%; cyp1Δ (%) gene knockout frequency ([2]; NU7026 10 μM): 8.3%; prf1 Δ (%) gene knockout frequency ([2]; NU7026 10 μM): 8.7%; cyp1Δ (%) gene knockout frequency ([2]; NU7026 50 μM): 7.4%; prf1 Δ (%) gene knockout frequency ([2]; NU7026 50 μM): 8.5%; total number of transformants obtained in 5 transformation plates ([2]; cyp1Δ, NU7026 0.1 μM): 601; total number of transformants obtained in 5 transformation plates ([2]; cyp1Δ, NU7026 1 μM): 496; total number of transformants obtained in 5 transformation plates ([2]; cyp1Δ, NU7026 5 μM): 413; total number of transformants obtained in 5 transformation plates ([2]; cyp1Δ, NU7026 10 μM): 96; total number of transformants obtained in 5 transformation plates ([2]; cyp1Δ, NU7026 50 μM): 68; total number of transformants obtained in 5 transformation plates ([2]; prf1Δ, NU7026 0.1 μM): 642; total number of transformants obtained in 5 transformation plates ([2]; prf1Δ, NU7026 1 μM): 554; total number of transformants obtained in 5 transformation plates ([2]; prf1Δ, NU7026 5 μM): 361; total number of transformants obtained in 5 transformation plates ([2]; prf1Δ, NU7026 10 μM): 172; total number of transformants obtained in 5 transformation plates ([2]; prf1Δ, NU7026 50 μM): 59
